# Measured values: patent US7026454B1, “Neuroendocrine marker of prostate cancer and method for producing same” (University of Kansas Medical Center, priority 1998, dated 2006)
# Where no end group is shown, it is not given here.
# B1: neuroendocrine growth factor or marker (NEM) (ligand)
# chain: RTCVLGYLHIVPEFIESQLLGLLSPVSL
# modifications: also: 125I-labelled form used in RIA
# Tests used:
# [1] = system: PC-3M cells; test: 3H-thymidine incorporation (DNA synthesis) in PC-3M cells; format: cell-based; details: 24 hours, FIG. 1
# Description: FIG. 1 illustrates the effect of exogenously added prostatic NEM on DNA synthesis of an aggressive prostate cancer (PC-3M) cell line. To obtain the results shown in FIG. 1, PC-3M cells were seeded at a density of 10,000 cells per well and incubated overnight in the complete medium. The cells were then washed with and incubated in serum-free medium containing the agents and 0.5 μCi of 3H-thymidine for 24 hours. At the end of incubation, the cells were washed three times with PBS-1 μM thymidine and the incorporated radioactivity was determined in TCA-precipitable fraction.
# If NEM-induced DNA synthesis may influence proliferative activity of a prostate tumor and other cancer cells, then its immunoneutralization should reduce the growth. This hypothesis was tested by studying the rate of 3H-thymidine incorporation in PC-3M prostate cancer cells. The cells were treated either with non-immune antiserum or anti-NEM antiserum at a final dilution of 1:50.
# [2] = system: NEM receptors on prostate cancer cells; test: Binding of NEM to its receptors on prostate cancer cells
# [3] = system: PC-3M cells; test: Matrigel in vitro invasion of PC-3M cells; format: cell-based
# Description: FIG. 2 illustrates the effect of NEM on in vitro invasion of PC-3M cells. The experiment used 3 well Matrigel invasion chambers (Becton Dickinson, Bedford, Mass.). Approximately 200,000 PC-3M cells were seeded in the upper chamber in RPMI 1640 medium containing 0.1% BSA (Sigma, St. Louis), 4 mM L-glutamine, 100 IU/ml penicillin G and 100 ug/ml streptomycin. The lower chamber medium contained chemoattractant medium consisting of 80% complete medium (RPMI 1640, 12% horse serum, 4% […] fetal calf serum, 4 mM L-glutamine, 100 IU/ml penicillin G and […]). Different concentrations of NEM or conditioned media from NEM-PC3-M cells that express NEM (dilutions ranging from 1 to 5) were added to the upper chamber. The experiments were carried out for 72 hours. At the end of the incubation period the Matrigel was scraped off using cotton swabs and the top insert was fixed and stained using Diff Quick staining (Dade Diagnostics, Aguada, PR). The relative invasive potential was determined by normalizing for cell growth. This was done by plating 100,000 cells in six well dishes in chemoattractant medium and determining the relative growth of cells after 72 hours. The number of cells per 100×field were expressed as mean +/−SEM.
# FIG. 4 illustrates the effect of the anti-NEM antiserum on invasion of PC-3M cells. […]
# [4] = system: OVCA-5; test: Growth of non-prostate cancer cells (bone-derived cell lines); format: cell-based
# [5] = system: prostate cancer cell lines; details: background statement; cited from earlier work
# [6] = target: NEM receptor on prostate cancer cells; test: cell-based or functional assay
molecule,measurement,setting,value
NEM: novel neuroendocrine growth factor or marker isolated from prostate cancer cells; amino acid SEQ ID NO: 6 expressed in PC-3M cells (RTCVLGYLHIVPEFIESQLLGLLSPVSL; listed as Homo sapiens),concentration at which the increase in DNA synthesis was significant,[1]; PC-3M cells,≥ 10 nM
same,3H-thymidine incorporation (DNA synthesis),"[1]; exogenously added NEM, serum-free medium",stimulated 3H-thymidine incorporation in a dose-dependent fashion
same,receptor binding affinity,[2],high affinity (low nM)
same,invasiveness of PC-3M cells,"[3]; all concentrations of NEM significant vs 0, P<0.05, FIG. 2",in a dose-dependent fashion significantly increases the invasiveness
same,increase in invasiveness,"[3]; from 0M to 10^-6M NEM, 72 hours, FIG. 2",70%
same,growth of non-prostate cancer cells,[4],stimulates the growth
Pindobind,growth of prostate cancer cell lines,[5],inhibit the growth
B1,3H-thymidine incorporation (DNA synthesis) in PC-3M cells,[6],> 10 nM
same,in vitro Matrigel invasion of PC-3M cells,[6],70%
